In PubChem BioAssay (NCI):
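Growth conditions: 96-well plates. Treatment: test compound, 48 hours, 5 concentrations. Analysis: linear interpolation between bracketing concentrations; unreached endpoints set to highest concentration. GI50 marks 50% less growth. Definition used: TGI = concentration required for complete inhibition of growth.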

Columns and labels:
Assay in all cases: growth of human tumour cells (NCI), 48 h
786-0 renal = system: 786-0 renal
A498 renal = system: A498 renal
A549 NSCLC = system: A549 NSCLC
ACHN renal = system: ACHN renal
BT-549 breast = system: BT-549 breast
CAKI-1 renal = system: CAKI-1 renal
CCRF-CEM leukemia = system: CCRF-CEM leukemia
COLO 205 colon = system: COLO 205 colon
DU-145 prostate = system: DU-145 prostate
EKVX NSCLC = system: EKVX NSCLC
HCC-2998 colon = system: HCC-2998 colon
HCT-116 colon = system: HCT-116 colon
HCT-15 colon = system: HCT-15 colon
HL-60(TB) leukemia = system: HL-60(TB) leukemia
HOP-62 NSCLC = system: HOP-62 NSCLC
HOP-92 NSCLC = system: HOP-92 NSCLC
HS 578T breast = system: HS 578T breast
HT29 colon = system: HT29 colon
IGROV1 ovarian = system: IGROV1 ovarian
K-562 leukemia = system: K-562 leukemia
KM12 colon = system: KM12 colon
M14 melanoma = system: M14 melanoma
MALME-3M melanoma = system: MALME-3M melanoma
MCF7 breast = system: MCF7 breast
MDA-MB-231 breast = system: MDA-MB-231 breast
MDA-MB-435 = system: MDA-MB-435
MOLT-4 leukemia = system: MOLT-4 leukemia
NCI-H226 lung = system: NCI-H226 lung
NCI-H23 lung = system: NCI-H23 lung
NCI-H460 lung = system: NCI-H460 lung
NCI/ADR-RES ovarian = system: NCI/ADR-RES ovarian
OVCAR-3 ovarian = system: OVCAR-3 ovarian
OVCAR-4 ovarian = system: OVCAR-4 ovarian
OVCAR-5 ovarian = system: OVCAR-5 ovarian
OVCAR-8 ovarian = system: OVCAR-8 ovarian
PC-3 prostate = system: PC-3 prostate
RPMI-8226 leukemia = system: RPMI-8226 leukemia
RXF 393 renal = system: RXF 393 renal
SF-268 CNS = system: SF-268 CNS
SF-295 CNS = system: SF-295 CNS
SF-539 CNS = system: SF-539 CNS
SK-MEL-2 melanoma = system: SK-MEL-2 melanoma
SK-MEL-28 melanoma = system: SK-MEL-28 melanoma
SK-MEL-5 melanoma = system: SK-MEL-5 melanoma
SK-OV-3 ovarian = system: SK-OV-3 ovarian
SN12C renal = system: SN12C renal
SNB-19 CNS = system: SNB-19 CNS
SNB-75 CNS = system: SNB-75 CNS
SR leukemia = system: SR leukemia
SW-620 colon = system: SW-620 colon
T-47D breast = system: T-47D breast
TK-10 renal = system: TK-10 renal
U251 CNS = system: U251 CNS
UACC-257 melanoma = system: UACC-257 melanoma
UACC-62 melanoma = system: UACC-62 melanoma
UO-31 renal = system: UO-31 renal

CNC1CCc2c(sc(NC(=O)c3ccc(C(C)(C)C)cc3)c2C(N)=O)C1 (configuration not stated)
GI50 (786-0 renal): 1.61 µM | TGI (786-0 renal): 3.1 µM | GI50 (A498 renal): 1.48 µM | TGI (A498 renal): 4.28 µM | GI50 (A549 NSCLC): 2.09 µM | TGI (A549 NSCLC): 4.46 µM | GI50 (ACHN renal): 2.01 µM | TGI (ACHN renal): 4.23 µM | GI50 (BT-549 breast): 1.85 µM | TGI (BT-549 breast): 4.67 µM | GI50 (CAKI-1 renal): 1.9 µM | TGI (CAKI-1 renal): 3.81 µM | GI50 (CCRF-CEM leukemia): 1.52 µM | TGI (CCRF-CEM leukemia): 4.85 µM | GI50 (COLO 205 colon): 1.73 µM | TGI (COLO 205 colon): 3.54 µM | GI50 (DU-145 prostate): 1.95 µM | TGI (DU-145 prostate): 4.03 µM | GI50 (EKVX NSCLC): 1.72 µM | TGI (EKVX NSCLC): 4.26 µM | GI50 (HCC-2998 colon): 1.76 µM | TGI (HCC-2998 colon): 3.34 µM | GI50 (HCT-116 colon): 1.34 µM | TGI (HCT-116 colon): 2.66 µM | GI50 (HCT-15 colon): 1.52 µM | TGI (HCT-15 colon): 3.15 µM | GI50 (HL-60(TB) leukemia): 0.634 µM | TGI (HL-60(TB) leukemia): 2.36 µM | GI50 (HOP-62 NSCLC): 1.55 µM | TGI (HOP-62 NSCLC): 3.6 µM | GI50 (HOP-92 NSCLC): 0.944 µM | TGI (HOP-92 NSCLC): 5.04 µM | GI50 (HS 578T breast): 2.15 µM | TGI (HS 578T breast): 5.43 µM | GI50 (HT29 colon): 1.29 µM | TGI (HT29 colon): 3.71 µM | GI50 (IGROV1 ovarian): 1.59 µM | TGI (IGROV1 ovarian): 3.58 µM | GI50 (K-562 leukemia): 1.32 µM | TGI (K-562 leukemia): 3.34 µM | GI50 (KM12 colon): 1.89 µM | TGI (KM12 colon): 3.61 µM | GI50 (M14 melanoma): 1.75 µM | TGI (M14 melanoma): 3.6 µM | GI50 (MALME-3M melanoma): 1.63 µM | TGI (MALME-3M melanoma): 3.26 µM | GI50 (MCF7 breast): 1.65 µM | TGI (MCF7 breast): 3.53 µM | GI50 (MDA-MB-231 breast): 1.61 µM | TGI (MDA-MB-231 breast): 2.97 µM | GI50 (MDA-MB-435): 1.75 µM | TGI (MDA-MB-435): 3.4 µM | GI50 (MOLT-4 leukemia): 1.74 µM | TGI (MOLT-4 leukemia): 4.09 µM | GI50 (NCI-H226 lung): 1.87 µM | TGI (NCI-H226 lung): 4.02 µM | GI50 (NCI-H23 lung): 1.67 µM | TGI (NCI-H23 lung): 3.62 µM | GI50 (NCI-H460 lung): 1.63 µM | TGI (NCI-H460 lung): 3.33 µM | GI50 (NCI/ADR-RES ovarian): 2.34 µM | TGI (NCI/ADR-RES ovarian): 6.34 µM | GI50 (OVCAR-3 ovarian): 1.92 µM | TGI (OVCAR-3 ovarian): 3.99 µM | GI50 (OVCAR-4 ovarian): 2.05 µM | TGI (OVCAR-4 ovarian): 5.03 µM | GI50 (OVCAR-5 ovarian): 2 µM | TGI (OVCAR-5 ovarian): 4.39 µM | GI50 (OVCAR-8 ovarian): 2.66 µM | TGI (OVCAR-8 ovarian): 6.93 µM | GI50 (PC-3 prostate): 1.73 µM | TGI (PC-3 prostate): 4.02 µM | GI50 (RPMI-8226 leukemia): 1.95 µM | TGI (RPMI-8226 leukemia): 4.89 µM | GI50 (RXF 393 renal): 1.42 µM | TGI (RXF 393 renal): 2.81 µM | GI50 (SF-268 CNS): 2.44 µM | TGI (SF-268 CNS): 5.42 µM | GI50 (SF-295 CNS): 1.76 µM | TGI (SF-295 CNS): 3.27 µM | GI50 (SF-539 CNS): 1.66 µM | TGI (SF-539 CNS): 3.07 µM | GI50 (SK-MEL-2 melanoma): 2 µM | TGI (SK-MEL-2 melanoma): 4.1 µM | GI50 (SK-MEL-28 melanoma): 1.73 µM | TGI (SK-MEL-28 melanoma): 3.25 µM | GI50 (SK-MEL-5 melanoma): 1.7 µM | TGI (SK-MEL-5 melanoma): 3.08 µM | GI50 (SK-OV-3 ovarian): 2.35 µM | TGI (SK-OV-3 ovarian): 6.14 µM | GI50 (SN12C renal): 2.4 µM | TGI (SN12C renal): 7.34 µM | GI50 (SNB-19 CNS): 1.87 µM | TGI (SNB-19 CNS): 3.64 µM | GI50 (SNB-75 CNS): 2.02 µM | TGI (SNB-75 CNS): 5.66 µM | GI50 (SR leukemia): 1.29 µM | TGI (SR leukemia): 3.51 µM | GI50 (SW-620 colon): 1.91 µM | TGI (SW-620 colon): 3.66 µM | GI50 (T-47D breast): 2.06 µM | TGI (T-47D breast): 5.59 µM | GI50 (TK-10 renal): 2 µM | TGI (TK-10 renal): 3.76 µM | GI50 (U251 CNS): 1.81 µM | TGI (U251 CNS): 3.79 µM | GI50 (UACC-257 melanoma): 1.92 µM | TGI (UACC-257 melanoma): 4.43 µM | GI50 (UACC-62 melanoma): 1.66 µM | TGI (UACC-62 melanoma): 3.06 µM | GI50 (UO-31 renal): 1.51 µM | TGI (UO-31 renal): 3.46 µM
